Target: GHS-R (Homo sapiens, UniProt Q92847)
Assay: GHS-R antagonist activity (Ki) in a cell based assay
In short: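 Transfected COS-7 cells were labelled 24 h with [^3H]-myo-inositol and preincubated 30 min at 37 °C in HEPES buffer pH 7.4 with 10 mM LiCl, optionally with 1 U/ml adenosine deaminase. Compound was applied for 45 min at 37 °C. [^3H]-inositol phosphates were extracted with perchloric acid and isolated by anion-exchange resin.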

GHS-R, sequence (Q92847 whole entry, species assumed): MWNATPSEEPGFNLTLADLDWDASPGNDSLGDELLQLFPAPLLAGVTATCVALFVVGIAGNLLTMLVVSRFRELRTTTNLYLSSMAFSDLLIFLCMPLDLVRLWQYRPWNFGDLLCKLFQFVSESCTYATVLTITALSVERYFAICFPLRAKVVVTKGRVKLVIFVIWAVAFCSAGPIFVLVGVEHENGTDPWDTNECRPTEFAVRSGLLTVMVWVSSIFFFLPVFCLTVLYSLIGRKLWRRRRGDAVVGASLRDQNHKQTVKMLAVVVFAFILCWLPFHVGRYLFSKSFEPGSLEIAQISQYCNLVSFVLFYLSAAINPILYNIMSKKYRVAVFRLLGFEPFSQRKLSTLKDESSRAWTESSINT

| SMILES | Ki [µM] |
| --- | --- |
| CCN(CC)CCS(=O)(=O)N[C@H](CCc1ccccc1)c1nc(Cc2ccccc2C)no1 [Compound 87, 2-Diethylamino-ethanesulfonic acid {(R)-1-[3-(2-methyl-benzyl)-[1,2,4]oxadiazol-5-yl]-3-phenyl-propyl}-amide] | 0.1 to 0.5 |
| CCN(CC)CCS(=O)(=O)N[C@H](CCc1ccccc1)c1nc(-c2ccc(OC)cc2)no1 [Compound 88, 2-Diethylamino-ethanesulfonic acid {(R)-1-[3-(4-methoxy-phenyl)-[1,2,4]oxadiazol-5-yl]-3-phenyl-propyl}-amide] | ≥ 1 |
| CCN(CC)CCS(=O)(=O)N[C@H](CCc1ccccc1)c1nc(Cc2ccccc2F)no1 [Compound 91, 2-Diethylamino-ethanesulfonic acid {(R)-1-[3-(2-fluoro-benzyl)-[1,2,4]oxadiazol-5-yl]-3-phenyl-propyl}-amide] | 0.1 to 0.5 |
| CCN(CC)CCCS(=O)(=O)N[C@H](CCC(N)=O)c1nc(Cc2ccc(Br)cc2)no1 [Compound 98, (R)-4-[3-(4-Bromo-benzyl)-[1,2,4]oxadiazol-5-yl]-4-(3-diethylamino-propane-1-sulfonylamino)-butyramide] | 0.1 to 0.5 |
| CCN(CC)CCCS(=O)(=O)N[C@H](CCc1ccccc1)c1nc(CCc2ccccc2Cl)no1 [Compound 101, 3-Diethylamino-propane-1-sulfonic acid ((R)-1-{3-[2-(2-chloro-phenyl)-ethyl]-[1,2,4]oxadiazol-5-yl}-3-phenyl-propyl)-amide] | 0.1 to 0.5 |
| CCN(CC)CCCS(=O)(=O)N[C@H](CC(N)=O)c1nc(Cc2ccc(Br)cc2)no1 [Compound 102, (R)-3-[3-(4-Bromo-benzyl)-[1,2,4]oxadiazol-5-yl]-3-(3-diethylamino-propane-1-sulfonylamino)-propionamide] | 0.1 to 0.5 |
| CCN(CC)CCCS(=O)(=O)N[C@H](CCc1ccccc1)c1nc(Cc2ccc(OC)cc2)n[nH]1 [Compound 107, 3-Diethylamino-propane-1-sulfonic acid {(R)-1-[5-(4-methoxy-benzyl)-2H-[1,2,4]triazol-3-yl]-3-phenyl-propyl}-amide] | 0.1 to 0.5 |
| CCN(CC)CCCS(=O)(=O)N[C@H](CCc1ccccc1)c1nc(-c2ccc(C)cc2)n[nH]1 [Compound 108, 3-Diethylamino-propane-1-sulfonic acid [(R)-3-phenyl-1-(5-p-tolyl-2H-[1,2,4]triazol-3-yl)-propyl]-amide] | 0.1 to 0.5 |
| CCN(CC)CCCS(=O)(=O)N[C@H](CCc1ccccc1)c1nc(-c2ccc(N(C)C)cc2)n[nH]1 [Compound 110, 3-Diethylamino-propane-1-sulfonic acid {(R)-1-[5-(4-dimethylamino-phenyl)-2H-[1,2,4]triazol-3-yl]-3-phenyl-propyl}-amide] | ≥ 1 |
| CCN(CC)CCCS(=O)(=O)N[C@H](CCc1ccccc1)c1nc(Cc2ccccn2)no1 [Compound 112, 3-Diethylamino-propane-1-sulfonic acid [(R)-3-phenyl-1-(3-pyridin-2-ylmethyl-[1,2,4]oxadiazol-5-yl)-propyl]-amide] | 0.1 to 0.5 |

The remaining lines, values ahead:

| Ki [µM] | SMILES |
| --- | --- |
| < 0.1 | CCN(CC)CCS(=O)(=O)N[C@H](CCc1ccccc1)c1nc(-c2ccc(F)cc2)no1 [Compound 89, 2-Diethylamino-ethanesulfonic acid {(R)-1-[3-(4-fluoro-phenyl)-[1,2,4]oxadiazol-5-yl]-3-phenyl-propyl}-amide] |
| < 0.1 | CCN(CC)CCS(=O)(=O)N[C@H](CCc1ccccc1)c1nc(Cc2c(Cl)cccc2Cl)no1 [Compound 90, 2-Diethylamino-ethanesulfonic acid {(R)-1-[3-(2,6-dichloro-benzyl)-[1,2,4]oxadiazol-5-yl]-3-phenyl-propyl}-amide] |
| < 0.1 | CCN(CC)CCS(=O)(=O)N[C@H](CCc1ccccc1)c1nc(Cc2cccc(Br)c2)no1 [Compound 92, 2-Diethylamino-ethanesulfonic acid {(R)-1-[3-(3-bromo-benzyl)-[1,2,4]oxadiazol-5-yl]-3-phenyl-propyl}-amide] |
| < 0.1 | CCN(CC)CCS(=O)(=O)N[C@H](CCc1ccccc1)c1nc(Cc2ccccc2Br)no1 [Compound 93, 2-Diethylamino-ethanesulfonic acid {(R)-1-[3-(2-bromo-benzyl)-[1,2,4]oxadiazol-5-yl]-3-phenyl-propyl}-amide] |
| < 0.1 | CCN(CC)CCCS(=O)(=O)N[C@@H](Cc1ccccc1)c1nc(-c2ccc(OC)cc2)n[nH]1 [Compound 95, 3-Diethylamino-propane-1-sulfonic acid {(S)-1-[5-(4-methoxy-phenyl)-2H-[1,2,4]triazol-3-yl]-2-phenyl-ethyl}-amide] |
| < 0.1 | CCN(CC)CCCS(=O)(=O)N[C@H](CCc1ccccc1)c1nc(-c2ccc(F)cc2F)n[nH]1 [Compound 96, 3-Diethylamino-propane-1-sulfonic acid {(R)-1-[5-(2,4-difluoro-phenyl)-2H-[1,2,4]triazol-3-yl]-3-phenyl-propyl}-amide] |
| < 0.1 | CCN(CC)CCCS(=O)(=O)N[C@H](CCc1ccccc1)c1nc(CCc2ccccc2)no1 [Compound 97, 3-Diethylamino-propane-1-sulfonic acid [(R)-1-(3-phenethyl-[1,2,4]oxadiazol-5-yl)-3-phenyl-propyl]-amide] |
| < 0.1 | CCN(CC)CCCS(=O)(=O)N[C@H](CCc1ccccc1)c1nc(COc2ccccc2)no1 [Compound 99, 3-Diethylamino-propane-1-sulfonic acid [(R)-1-(3-phenoxymethyl-[1,2,4]oxadiazol-5-yl)-3-phenyl-propyl]-amide] |
| < 0.1 | CCN(CC)CCCS(=O)(=O)N[C@H](CCc1ccccc1)c1nc(Cc2ccccc2OC)no1 [Compound 100, 3-Diethylamino-propane-1-sulfonic acid {(R)-1-[3-(2-methoxy-benzyl)-[1,2,4]oxadiazol-5-yl]-3-phenyl-propyl}-amide] |
| < 0.1 | CCN(CC)CCCS(=O)(=O)N[C@H](CCc1ccccc1)c1nc(-c2ccccc2C)n[nH]1 [Compound 104, 3-Diethylamino-propane-1-sulfonic acid [(R)-3-phenyl-1-(5-o-tolyl-2H-[1,2,4]triazol-3-yl)-propyl]-amide] |
| < 0.1 | CCN(CC)CCCS(=O)(=O)N[C@H](CCc1ccccc1)c1nc(-c2ccc(F)cc2)n[nH]1 [Compound 105, 3-Diethylamino-propane-1-sulfonic acid {(R)-1-[5-(4-fluoro-phenyl)-2H-[1,2,4]triazol-3-yl]-3-phenyl-propyl}-amide] |
| < 0.1 | CCN(CC)CCCS(=O)(=O)N[C@H](CCc1ccccc1)c1nc(-c2ccc(OC(F)(F)F)cc2)n[nH]1 [Compound 106, 3-Diethylamino-propane-1-sulfonic acid {(R)-3-phenyl-1-[5-(4-trifluoromethoxy-phenyl)-2H-[1,2,4]triazol-3-yl]-propyl}-amide] |
| < 0.1 | CCN(CC)CCCS(=O)(=O)N[C@H](CCc1ccccc1)c1nc(Cc2cccc(OC)c2)no1 [Compound 109, 3-Diethylamino-propane-1-sulfonic acid {(R)-1-[3-(3-methoxy-benzyl)-[1,2,4]oxadiazol-5-yl]-3-phenyl-propyl}-amide] |
| < 0.1 | CCN(CC)CCCS(=O)(=O)N[C@H](CCc1ccccc1)c1nc(Cc2ccc(OC)cc2)no1 [Compound 111, 3-Diethylamino-propane-1-sulfonic acid {(R)-1-[3-(4-methoxy-benzyl)-[1,2,4]oxadiazol-5-yl]-3-phenyl-propyl}-amide] |
